For one series, the system named is healthy females. Description: Phase 1 FIH study: modified Drug Effect Questionnaire (DEQ-High). It counts as in vivo, human. Also on record: mean time to peak DEQ-High score: dose or concentration left out as unconfirmed. The procedure:
The study was a double-blind, randomized, placebo-controlled Phase 1 single ascending dose study in up to 6 cohorts in healthy females. Eligibility was assessed during a screening period of up to 28 days prior to enrollment. For the treatment period, subjects were admitted to the clinical research unit (CRU) one day prior to the dosing (Day −1). On Day 1, all subjects will received the assigned SC dose of RE104 HCl or placebo in a fed state (after domiciling overnight and consuming a planned evening meal on Day −1 and morning meal on Day 1 while at the CRU). Subjects were allowed to select snacks from a planned menu from 4 hours following dosing. Subjects were discharged from the clinic on Day 2 (−24 hours post-dose) after all required study procedures were completed and if deemed medically fit. Subjects returned to the clinic on Day 10 (±2 days) for a follow up visit.
The Drug Effect Questionnaire (DEQ) Feel/High is widely used in studies of acute subjective response to a variety of substances, to assess two key aspects of subjective experience: (1) the strength of substance effects and (2) desirability of substance effects (Morean et al., 2013). The modified DEQ assesses the extent to which subjects (1) feel any substance effect(s) and (2) feel high. This version of the DEQ includes the following items: “Do you feel a drug effect right now?” (FEEL); “Are you high right now?” (HIGH). FIG. 2 sets out the modified DEQ that was used.
The modified DEQ was used as an 11-point numeric rating scale (0-10) administered by a qualified staff member. The subjects were asked to verbally respond to indicate how strongly they feel the drug effect and how high they feel on the scale of 0-10 after being administered the study drug (Kollltveit et al., 2020).

Series [1] can be described thus: Prodrug cleavage in rat plasma. The class given is in vitro ADME. The settings on record: 37° C. The procedure: Mean values from 3 replicate assays are reported. See the Supplemental Methods for additional details.
Triplicate aliquots (50 μL) of each spiked plasma solution were immediately added to 200 μL of ice-cold methanol/acetonitrile solution (50:50 v/v) containing the internal standards to generate time zero samples. Spiked plasma solutions were incubated at 37° C. in an orbital shaker set to 75 rpm, and 50-μL samples were taken in triplicate after 30 minutes and 1, 2, and 4 hours of incubation. Each sample was immediately added to 200 μL ofice-cold methanol/acetonitrile solution containing the internal standard(s) to terminate the reaction. Samples were mixed by vortex and then stored at −80° C. until analysis.
Calibration standards were prepared in plasma for each species and analyzed in batches by LC-MS/MS. Sample batches consisted of 3 replicates of a system suitability standard (containing the analyte and internal standard), the appropriate calibration standards in ascending order including a blank sample without internal standard, a zero sample (with internal standard), and at least 6 nonzero standards and the assay samples, followed by the 3 replicates of the system suitability sample.

One compound from patent US20250319067A1, “Improved Pharmacokinetics of Tryptamine Prodrugs” (Reunion Neuroscience, Inc., priority 2023, published 2025) can be followed below.

Structures are written as SMILES. Some results are limits rather than exact numbers.

On to `CC(C)N(CCc1c[nH]c2cccc(OC(=O)CCCC(=O)O)c12)C(C)C` [RE104], for which the “mean time to peak DEQ-High score” value with healthy females was determined as 1.1 h. The “Mean Experience Duration” value with healthy females (33 mg) turned out to be 3.7 h. In addition, the “DEQ-High score, all participants” value in the series on healthy females (4 hours post dose) is 51. In addition, in series [1], the completeness of conversion was more than 95% and the “time of conversion to 4-OH-DiPT” value is less than 30 min.
